The record followed here is US6294547A, “Naphthyridine deratives or salts thereof” (Nippon Kayaku Kabushiki Kaisha, priority 1997, dated 2001).

Where a name gives a salt, the structure may show the parent alone.

For series [1], the target named is T1, NK-2 receptors (Rattus norvegicus, UniProt P16610).
T1 construct: Duodenums isolated from Fischer strain male rats were homogenized; from tissue; host or cells: duodenum membranes of male Fischer rats
T1 sequence (P16610 1-390): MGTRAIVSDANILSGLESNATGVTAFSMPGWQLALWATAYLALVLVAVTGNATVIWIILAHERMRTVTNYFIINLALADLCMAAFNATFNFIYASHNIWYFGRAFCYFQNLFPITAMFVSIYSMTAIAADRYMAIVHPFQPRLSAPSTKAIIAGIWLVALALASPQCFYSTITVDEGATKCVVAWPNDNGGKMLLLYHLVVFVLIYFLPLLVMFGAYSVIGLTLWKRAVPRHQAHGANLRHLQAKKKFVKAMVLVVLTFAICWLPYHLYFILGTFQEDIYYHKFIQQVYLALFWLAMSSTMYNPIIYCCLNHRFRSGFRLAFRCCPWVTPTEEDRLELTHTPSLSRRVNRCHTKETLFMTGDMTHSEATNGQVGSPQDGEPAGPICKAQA
Nature of the series: Binding to NK-2 receptors (inhibition of radioactive 125I-neurokinin A binding). The format is Fischer strain male rats (duodenum membranes). As to conditions: rat duodenum membrane; 125I-neurokinin A 1×10^-9 M; 90 min, room temperature; read-out: IC50 of drugs in binding of radioactive neurokinin A. The method, then:
Duodenums isolated from Fischer strain male rats were homogenized in 50 mM Tris-hydrochloric acid buffer (pH 7.4) containing saccharose (100 mg/ml) and ethylenediaminetetraacetic acid (1 mM), and the resulting homogenate was centrifuged at 48,000 g and 4° C. for 20 minutes. The pellet thus obtained was washed three times with 10 times as much 50 mM Tris-hydrochloric acid buffer (pH 7.4) containing KCl (300 mM) and ethylenediaminetetraacetic acid (10 mM) as the pellet by volume, and the resulting membrane preparation was suspended in 10 times as much 50 mM Tris-hydrochloric acid buffer (pH 7.4) as the membrane preparation by volume and stored at -80° C. until use. The membrane preparation (20 mg/ml) was incubated together with a radioactive ligand ^125 I-neurokinin A (1×10^-9 M) at room temperature for 90 minutes in the presence of each drug or a solvent therefor in 50 mM Tris-hydrochloricacid buffer (pH 7.4) containing bovine serum albumin (10 mg/ml), bacitracin (40 μg/ml), leupeptin (4 μg/ml), chymostatin (50 μg/ml), antipain (1×10^-4 M) and MnCl2 (1 mM). […] Then, radioactivity in the filter was measured with a gamma counter. The 50% inhibitory concentration (IC50) of the drug was determined by means of a regression line by considering radioactivity in the presence of Nle10 neurokinin A (4-10) (3×10^-6 M) to be due to nonspecific binding, and measuring the rate of inhibition of specific binding by the drug by carrying out a control experiment using the solvent alone.

The test system of series [2] is NK-2 receptors. Nature of the series: Inhibitory effect on bronchoconstriction caused by stimulation of NK-2 receptors (Nle10 neurokinin A (4-10)). The format is in vivo, Hartley strain male guinea pigs. The method, then: There were used non-treated Hartley strain male guinea pigs and Hartley strain male guinea pigs received to active sensitization by subcutaneous administration of 30 mg/kg of ovalbumin 14 to 21 days before. The guinea pigs were anesthetized with pentobarbital and a tube was inserted into the trachea of each guinea pig. The guinea pigs were subjected to positive pressure respiration by means of an artificial respiratory apparatus at 10 ml/kg and 60 times/minute. The pressure in the edge of the tube in the trachea was measured as an indication of bronchoconstriction. Spontaneous respiration was inhibited by administering succinylcholine. The non-treated guinea pigs were repeatedly and intravenously injected with 2 nmol/kg of Nle10 neurokinin A (4-10), a specific stimulating agent for NK-2 receptors at intervals of 10 minutes. After the bronchoconstriction thus caused became stable, each drug was administered intravenously, orally or in duodenum. Nle10 neurokinin A (4-10) was intravenously injected again 3 minutes after the intravenous administration or 50 minutes after the oral administration or the administration in duodenum. The rate of inhibition by the drug was determined relative to the bronchoconstriction before the drug administration.

In another series the test system is Mouse. Nature of the series: Toxic effect on mouse, intravenous. The format is in vivo. Conditions: 65 μmol/kg intravenous. From the text: The toxicity of the compounds of the present invention was investigated.
[3] abbreviates: 0.5 μmol/kg intravenous, 3 min after administration.
Where [4] appears, read: 8 μmol/kg oral, 50 min after administration.
The mark [5] stands for this setting: 1 μmol/kg intravenous, 3 min after administration.

What is called IC50 is the midpoint of a concentration-inhibition curve. Regarding `CC(=O)Nc1c2c(nc3ccccc13)CCN(CCC(CN(C)C(=O)c1ccccc1)c1ccc(Cl)c(Cl)c1)C2` (single isomer, unassigned) [Example 27, 2-[(-)-4-(N-benzoyl-N-methyl)amino-3-(3-4-dichlorophenylbutyl]-10-methylcarbonylamino-1,2,3,4-tetrahydro-benzo[b][1,6]naphthyridine fumarate], the half-inhibitory concentration (IC50) at NK-2 receptors [1] amounted to 18 nM. For the same molecule, the “Inhibition (rate), stimulation of NK-2 receptors” value (“Inhibition (rate), stimulation” below) is 100.0% with NK-2 receptors [2] (setting [3]) and 81.5% with NK-2 receptors [2] (setting [4]). The Toxicity result with Mouse is recorded as “None”.
For the molecule `CN(CC(CCN1CCc2nc3ccccc3c(-c3ccccc3)c2C1)c1ccc(Cl)c(Cl)c1)C(=O)c1ccccc1` (single isomer, unassigned) [Example 39, 2-[(-)-4-(N-benzoyl-N-methyl)amino-3-(3,4-dichlorophenyl)butyl]-10-phenyl-1,2,3,4-tetrahydro-benzo[b][1,6]naphthyridine fumarate], on NK-2 receptors [1], the concentration for half-maximal inhibition (IC50) stood at 70 nM. Further, in the series with NK-2 receptors [2] (setting [3]), the “Inhibition (rate), stimulation” value was determined as 70.0%.
`CN(CC(CCN1CCc2nc3ccccc3c(C(=O)O)c2C1)c1ccc(Cl)c(Cl)c1)C(=O)c1ccccc1` (single isomer, unassigned) [Example 33, 2-[(-)-4-(N-benzoyl-N-methyl)amino-3-(3,4-dichlorophenyl)butyl]-1,2,3,4-tetrahydro-benzo-[b][1,6]naphthyridine-10-carboxylic acid fumarate]: the IC50 at NK-2 receptors [1] stood at 94 nM. The “Inhibition (rate), stimulation” value in the series on NK-2 receptors [2] (setting [5]) was found to be 57.5%.
As for `COC(=O)c1c2c(nc3ccccc13)CCN(CCC(CN(C)C(=O)c1ccccc1)c1ccc(Cl)c(Cl)c1)C2` (single isomer, unassigned) [Example 31, 2-[(-)-4-(N-benzoyl-N-methyl1amino-3-(3,4-dichlorophenyl)butyl]-10-methoxycarbonyl-1,2,3,4-tetrahydro-benzo[b][1,6]naphthyridine fumarate], the IC50 at NK-2 receptors [1] was 96 nM. Further, the entries for the “Inhibition (rate), stimulation” value in the series on NK-2 receptors [2] (setting [5]) and with NK-2 receptors [2] (setting [4]) were 100.0% and 53.5%, respectively.
As to `CN(CC(CCN1CCc2nc3ccccc3c(CO)c2C1)c1ccc(Cl)c(Cl)c1)C(=O)c1ccccc1` (single isomer, unassigned) [Example 37, 2-[(-)-4-(N-benzoyl-N-methyl)amino-3-(3,4-dichlorophenylbutyl]-10-hydroxymethyl-1,2,3,4-tetrahydro-benzo-[b][1,6]naphthyridine fumarate], the concentration for half-maximal inhibition (IC50) at NK-2 receptors [1] turned out to be 90 nM. In the series on NK-2 receptors [2] (setting [5]), the “Inhibition (rate), stimulation” value is recorded as 97.5%.
For the molecule `COC(=O)N(C)c1c2c(nc3ccccc13)CCN(CCC(CN(C)C(=O)c1ccccc1)c1ccc(Cl)c(Cl)c1)C2` (single isomer, unassigned) [Example 43, 2-[(-)-4-(N-benzoyl-N-methyl)amino-3-(3,4-dichlorophenyl)butyl]-10-(N-methyl-N-methoxycarbonyl)-amino-1,2,3,4-tetrahydro-benzo[b][1,6]naphthyridine fumarate], on NK-2 receptors [1], the IC50 was 66 nM. Also, the “Inhibition (rate), stimulation” value in the series on NK-2 receptors [2] (setting [3]) is on record as 86.2%.
As to `CN(CC(CCN1CCc2nc3ccccc3c(C(N)=O)c2C1)c1ccc(Cl)c(Cl)c1)C(=O)c1ccccc1` (single isomer, unassigned) [Example 29, 2-[(-)-4-(N-benzoyl-N-methyl)amino-3-(3,4-dichlorophenyl)butyl]-1,2,3,4-tetrahydro-benzo-[b][1,6]naphthyridine-10-carboxamide fumarate], the 50% inhibitory concentration (IC50) on NK-2 receptors [1] came to 59 nM. For the same molecule, the “Inhibition (rate), stimulation” value in the series on NK-2 receptors [2] (0.6 μmol/kg intravenous, 3 min after administration) stood at 100.0%; in the series on NK-2 receptors [2] (setting [4]), 43.5%.
With `COC(=O)Nc1c2c(nc3ccccc13)CCN(CCC(CN(C)C(=O)c1ccccc1)c1ccc(Cl)c(Cl)c1)C2` (single isomer, unassigned) [Example 41, 2-[(-)-4-(N-benzoyl-N-methyl)amino-3-(3,4-dichlorophenyl)butyl]-10-methoxycarbonylamino-1,2,3,4-tetrahydro-benzo[b][1,6]naphthyridine fumarate], the IC50 at NK-2 receptors [1] was determined as 30 nM. Besides, the “Inhibition (rate), stimulation” value with NK-2 receptors [2] (setting [3]) came out at 97.0%; in the series on NK-2 receptors [2] (5 μmol/kg in duodenum, 50 min after administration) it was 62.0%.
